Assay [1] concerns the target T1, full-length WT STING (Homo sapiens, UniProt Q86WV6, H232R).
T1 construct: Full-Length STING WT [STING(1-379)H232R-gg-AviTag-gs-; made in house; host or cells: Trichoplusia ni insect cells via baculovirus (virus made in Sf21); used as a membrane preparation
Kind of assay: 3H-cGAMP filtration binding assay (WT STING). The conditions noted are these: competition with tritiated cGAMP ligand, WT STING membrane. The method, then:
The ability of compounds to bind STING is quantified by their ability to compete with tritiated cGAMP ligand for human STING receptor membrane using a radioactive filter-binding assay. The binding assay employs STING receptor obtained from Trichoplusia ni cell membranes (T. ni; Expression Systems, cat #94-002F, www.expressionsystems.com) overexpressing full-length WT STING and tritiated cGAMP ligand.
The basic WT STING filtration assay protocol is as follows: 16 nM of [^3H] c-GAMP ligand was prepared by diluting into assay buffer, and 50 uL of this working stock was manually added to each well of the assay plate. After ligand addition, 2 uL of either titrated test compound, DMSO control (Sigma #276855), or cold cGAMP control was added to the appropriate wells using a BIOMEK FX. The serially titrated compound was prepared on a Hamilton STARPlus CORE in a 96-well plate (Greiner, #651201) using a 1:3 ten-point dose response format. […] Tritium levels for each reaction well were then measured using a PerkinElmer TopCount plate reader.
(§1) After normalization to controls, the percent activity for each compound concentration was calculated by measuring the amount of remaining radioactivity. […]

For assay [2], the target named is T2, full-length HAQ STING (Homo sapiens, UniProt Q86WV6, G230A/H232R/R293Q/R71H).
T2 construct: Full-Length HAQ STING [STING(1-379)R71H, G230A, H232R,; made in house; host or cells: Trichoplusia ni (Hi-Five) insect cells via baculovirus (virus made in Sf21); used as a membrane preparation
T2 sequence (Q86WV6 with tags, fused parts or gaps R71H/G230A/H232R/R293Q): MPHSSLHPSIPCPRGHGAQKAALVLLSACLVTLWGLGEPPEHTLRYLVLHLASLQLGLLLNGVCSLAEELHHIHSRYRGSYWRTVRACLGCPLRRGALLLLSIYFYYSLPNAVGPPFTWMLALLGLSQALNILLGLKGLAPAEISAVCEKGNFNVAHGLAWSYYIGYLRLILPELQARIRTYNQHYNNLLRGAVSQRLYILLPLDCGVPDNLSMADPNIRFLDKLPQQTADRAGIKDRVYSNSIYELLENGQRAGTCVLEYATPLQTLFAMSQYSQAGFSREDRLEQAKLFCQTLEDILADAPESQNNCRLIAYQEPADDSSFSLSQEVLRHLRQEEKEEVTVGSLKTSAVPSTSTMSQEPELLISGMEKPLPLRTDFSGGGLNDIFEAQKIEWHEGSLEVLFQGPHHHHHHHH
Put plainly: 3H-cGAMP filtration binding assay (HAQ STING). The conditions noted are these: competition with tritiated cGAMP ligand, HAQ STING membrane.
Excerpt: The ability of compounds to bind STING is quantified by the ability to compete with tritiated cGAMP ligand for human STING receptor membrane using a radioactive filter-binding assay. The binding assay employs STING receptor obtained from Hi-Five cell membranes overexpressing full-length HAQ STING prepared in-house and tritiated cGAMP ligand also purified in-house.
The ability of compounds to bind STING is quantified by their ability to compete with tritiated cGAMP ligand for human STING receptor membrane using a radioactive filter-binding assay. The binding assay employs STING receptor obtained from Trichoplusia ni cell membranes (T. ni; Expression Systems, cat #94-002F, www.expressionsystems.com) overexpressing full-length HAQ STING and tritiated cGAMP ligand.
The basic HAQ STING filtration assay protocol is as follows: The compounds were serially titrated by the Hamilton STARPlus CORE in a 96-well plate (Greiner, #651201) using a 1:3 ten-point dose response format. […] Tritium levels for each reaction well were then measured using a PerkinElmer TopCount plate reader.
as §1

Assay [3] deals with THP1 cells. Put plainly: IFN-β secretion in THP1 cell culture (5 h). It is filed as cell-based, human. As to conditions: 30 μM compound, 30 uM cGAMP = 100%. The method, then: The ability of compounds to stimulate the secretion of interferon-beta from THP1 cells was measured using a human IFN-β AlphaLISA kit (Perkin Elmer, Cat. No. AL265F). The basic protocol is as follows:
A Labcyte Echo 550 acoustic dispenser was used to transfer 120 nL of compound dissolved in DMSO into the wells of an empty, sterile 384-well microplate, (Corning, Cat. No. 3712). THP1 cells (American Type Culture Collection, Cat. No. TIB202) previously frozen in Recovery Medium (Life Technologies, Cat. No. 12648-010) were thawed and immediately diluted 10-fold into 37° C. assay medium (RPMI 1640+L-Glutamine & phenol red, Life Technologies, Cat. No. 11875-085; 0.5% heat inactivated fetal bovine serum, Sigma Aldrich, Cat. No. F4135; 1 mM Sodium Pyruvate, Life Technologies, Cat. No. 11360-070; lx non-essential amino acids; Life Technologies, Cat. No. 11140-050). The cell viability and count was ascertained using a Beckman Coulter V-Cell XR cell counter. The cell suspension was centrifuged at 200×g for 5 min at RT. […]
The assay was started by dispensing 40 μL of the previously prepared cell suspension into the wells of the plate containing compounds. […] The plate was then read on a Perkin Elmer Envision (λex=680 nm, λcm=570 nm). The percent effect of the AlphaLISA signal at each compound concentration was calculated based on 30 uM cGAMP positive controls and 0.3% DMSO negative controls. […]

This note sets out measurements from US20220024964A1, “Cyclic Di-Nucleotide Compounds as STING Agonists” (Merck Sharp & Dohme Corp., priority 2018, published 2022).

T1 sequence (Q86WV6 with tags, fused parts or gaps H232R): as the sequence (Q86WV6 with tags, fused parts or gaps R71H/G230A/H232R/R293Q) above, with H71R, A230G, Q293R counted along it

Take `Nc1nc2c(ncn2[C@@H]2O[C@@H]3COP(=O)(S)O[C@@H]4C[C@H](n5cnc6c(N)ncnc65)O[C@@H]4COP(=O)(S)O[C@H]2C3)c(=O)[nH]1` (stereo partly drawn) [Example 1, 2-amino-9-[(5S,7R,8S,12aR,14R,15aR)-14-(6-amino-9H-purin-9-yl)-2,10-dioxido-2,10-disulfanyloctahydro-12H-5,8-methanofuro[3,2-1][1,3,6,9,11,2,10]pentaoxadiphosphacyclotetradecin-7-yl]-1,9-dihydro-6H-purin-6-one]: the EC50 in assay [1] worked out at 118 nM; in assay [2], 49.1 nM. In addition, in assay [3], the “% Effect at 30 μM relative to 2′3′-cGAMP” value worked out at 107%.

As usually defined, the EC50 is the concentration that produces a half-maximal response. Read a high EC50 as lower potency in that assay.
